Assay results taken from patent US20250320215A1, “SALTS OF N-[4-(4-[[2-(DIMETHYLAMINO)ETHYL]AMINO]-3-METHYL-1H-PYRAZOLO[3,4-D]PYRIMIDIN-6-YL)-2-FLUOROPHENYL]-2,5-DIFLUOROBENZENESULFONAMIDE AND CRYSTALLINE FORMS THEREOF” (THRYV THERAPEUTICS INC, priority 2022, published 2025).
Like-named read-outs stand apart in the source and are kept apart here.

Legend:
Assay type in all cases: physicochemical
[1] = Water activity study (competition of forms, XRPD); details: for XPRD results, Form: room temperature
Description: Water activity study was performed using Compound 3 Form B (anhydrate) as the input material in EtOH/Water with different water content at RT. About 5 mg of Compound 3, Form B was used to prepare saturated solutions and the solutions were filtered by syringe at RT. 5 mg of Compound 3, Form D were added in the 1 mL of filtrate, and the suspension was slurried at RT for 3 and 7 days. The solids collected after filtration were analyzed by XRPD.
Protocol: excess amount of Compound 4 Form B was used to prepare saturated solutions. 6-8 mg each of Compound 4 Form B and Form D were added in the solutions. The suspension was slurried at room temperature for the corresponding times. Residual solids were collected by filtration with syringe filter, and characterized by XRPD.

[2] = Estimated solubility by solvent addition method via visual assessment; details: thermodynamic from solid, read-out: Solubility, Concentration
Description: Solubility of Compound 3 Form B was estimated in 30 solvents at room temperature and in 9 organic solvents at 70° C. using solvent addition method via visual assessment.
Protocol: about 3 mg of Compound 3 Form B was weighed into a sample vial and the solvent was added gradually with vortex until the drug solution was clear by observation or a total of 2 mL solvent was added. Then, the estimated solubility (mg/mL) was calculated.
Solubility of Compound 4, Form B was estimated in 18 solvents at room temperature using solvent addition method via visual assessment. About 3 mg of Compound 4, Form B was weighed into a sample vial and the solvent was added gradually with vortex until the solution was clear by observation or a total of 2 mL solvent was added. Then, the estimated solubility (mg/mL) was calculated.

[3] = Slurry study evaluated by XRPD
Description: About 20 mg of Compound 3, Form B was weighed into a sample vial and then 1 mL of solvent was added to make a suspension. The suspension was stirred at room temperature or 50° C. for 3 days and 11 days. Then, the wet solid was collected by filtration and analyzed by XRPD.
20-30 mg of Compound 4 Form B was added in 1 mL of selected solvents at room temperature or 50° C. The suspension was slurried at room temperature or 50° C. for 3 days and 11 days. The wet solids collected from filtration were examined by XRPD. There were four crystal forms obtained by slurrying, including di-mesylate Forms B, C and D as well as mono-mesylate Form G.

[4] = Thermal treatment (heat-cool cycle by DSC, XRPD of resulting solids)
Description: Compound 3, Form E was treated with heat-cool cycle by DSC. The resulted solids were characterized by XRPD. Compound 3, Form E, was converted to Compound 3, Form D after desolvation.
Compound 4 Form B was treated with heat-cool cycle by DSC. The resulted solids were checked by XRPD. […] The water was excluded at elevated temperature, then entered in the crystal lattice again at room temperature.
Compound 4 Form C and trace Form B was treated with heat-cool cycle by DSC. The resulted solids were checked by XRPD. The sample was converted to low crystalline (LC) Form B after heating to 175° C.
Compound 4 Form D was treated with heat-cool cycle by DSC. The resulted solids were checked by XRPD. The sample kept unchanged after heating to 140° C., but was converted to a new low crystalline form after heating to 210° C. which was assigned to Form F.

[5] = Competitive slurry experiment evaluated by XRPD
From the text: Competitive slurry experiment for Compound 4 Form B and Form D Competitive slurry experiments of Compound 4 Form B and Form D were set up to verify the relative stability relationship. It was supposed that Form D was the stable form at high water activity, while Form B was stable at low water activity. All the solvents used was analytical grade and should contained trace amounts of water. […] The water activity at elevated temperature is lower than at low temperature. Therefore, Form B was obtained in ACN at 50° C., while Form D was the stable form at room temperature.

[6] = slurry at 50° C., printed at MeOH

Cc1n[nH]c2nc(-c3ccc(NS(=O)(=O)c4cc(F)ccc4F)c(F)c3)nc(NCCN(C)C)c12.Cl [Compound 3 Form B + D]
XPRD results 3 D/Wet, 7 D/Wet, 7 D/Dried ([1]; EtOH/Water 24.7/75.3 (V/%), aW 0.92, RT): Form D + extra peak
XPRD results 3 D/Wet, 7 D/Wet, 7 D/Dried ([1]; EtOH/Water 58.1/41.9 (V/%), aW 0.82, RT): Form D + extra peak
XPRD results 3 D/Wet, 7 D/Wet, 7 D/Dried ([1]; EtOH/Water 82.9/17.1 (V/%), aW 0.64, RT): Form D
XPRD results 3 D/Wet, 7 D/Wet, 7 D/Dried ([1]; EtOH/Water 92.8/7.2 (V/%), aW 0.41, RT): Form D
XPRD results 3 D/Wet, 7 D/Wet, 7 D/Dried ([1]; EtOH/Water 97/3 (V/%), aW 0.21, RT): Form D
XPRD results 3 D/Wet, 7 D/Wet, 7 D/Dried ([1]; EtOH/Water 98.4/1.6 (V/%), aW 0.12, RT): Form D

Cc1n[nH]c2nc(-c3ccc(NS(=O)(=O)c4cc(F)ccc4F)c(F)c3)nc(NCCN(C)C)c12.Cl [Compound 3 Form B]
solubility ([2]; aqueous with cosolvent or surfactant or cyclodextrin, Acetone/Water (1/1), RT): < 1500 µg/mL
solubility ([2]; organic solvent or mixture, 1,4-Dioxane, RT): < 1500 µg/mL
solubility ([2]; organic solvent or mixture, 2-Me-THF, RT): < 1500 µg/mL
solubility ([2]; organic solvent or mixture, ACN, RT): < 1500 µg/mL
solubility ([2]; organic solvent or mixture, ACN/Water (9/1), RT): 1500 to 1700 µg/mL
solubility ([2]; organic solvent or mixture, Acetic acid, 70° C.): < 1500 µg/mL
solubility ([2]; organic solvent or mixture, Acetic acid, RT): < 1500 µg/mL
solubility ([2]; organic solvent or mixture, Acetone, 70° C.): < 1500 µg/mL
solubility ([2]; organic solvent or mixture, Acetone, RT): < 1500 µg/mL
solubility ([2]; organic solvent or mixture, Acetone/MeOH (1/1), RT): 1500 to 1600 µg/mL
solubility ([2]; organic solvent or mixture, Benzyl alcohol, 70° C.): < 1500 µg/mL
solubility ([2]; organic solvent or mixture, Benzyl alcohol, RT): < 1500 µg/mL
solubility ([2]; organic solvent or mixture, DCM, RT): < 1500 µg/mL
solubility ([2]; organic solvent or mixture, DCM/MeOH (3/1), RT): < 1500 µg/mL
solubility ([2]; organic solvent or mixture, DMA, 70° C.): 20000 to 40000 µg/mL
solubility ([2]; organic solvent or mixture, DMA, RT): 3000 to 3300 µg/mL
solubility ([2]; organic solvent or mixture, DMF, 70° C.): 16700 to 20000 µg/mL
solubility ([2]; organic solvent or mixture, DMF, RT): 2000 to 3000 µg/mL
solubility ([2]; organic solvent or mixture, DMSO, 70° C.): > 40000 µg/mL
solubility ([2]; organic solvent or mixture, DMSO, RT): 5400 to 5500 µg/mL
solubility ([2]; organic solvent or mixture, EA, RT): < 1500 µg/mL
solubility ([2]; organic solvent or mixture, EtOH, 70° C.): < 1500 µg/mL
solubility ([2]; organic solvent or mixture, EtOH, RT): < 1500 µg/mL
solubility ([2]; organic solvent or mixture, IPA, RT): < 1500 µg/mL
solubility ([2]; organic solvent or mixture, IPAC, RT): < 1500 µg/mL
solubility ([2]; organic solvent or mixture, IPE, RT): < 1500 µg/mL
solubility ([2]; organic solvent or mixture, MEK, RT): < 1500 µg/mL
solubility ([2]; organic solvent or mixture, MIBK, RT): < 1500 µg/mL
solubility ([2]; organic solvent or mixture, MTBE, RT): < 1500 µg/mL
solubility ([2]; organic solvent or mixture, Me-cyclohexane, RT): < 1500 µg/mL
solubility ([2]; organic solvent or mixture, MeOH, RT): < 1500 µg/mL
solubility ([2]; organic solvent or mixture, MeOH/Water (9/1), RT): 2500 to 3000 µg/mL
solubility ([2]; organic solvent or mixture, NMP, 70° C.): > 40000 µg/mL
solubility ([2]; organic solvent or mixture, NMP, RT): 3000 to 3800 µg/mL
solubility ([2]; organic solvent or mixture, THF, 70° C.): < 1500 µg/mL
solubility ([2]; organic solvent or mixture, THF, RT): < 1500 µg/mL
solubility ([2]; organic solvent or mixture, THF/Water (9/1), RT): 1600 to 1900 µg/mL
solubility ([2]; organic solvent or mixture, n-Heptane, RT): < 1500 µg/mL
solubility ([2]; Water, RT): < 1500 µg/mL
XRPD Day 3/Wet [3, 6]: Form D
XRPD Day 11/Wet [3, 6]: Form D
XRPD Day 3/Wet ([3]; slurry at RT, 1,4-Dioxane 1 mL, cell apparently merged down for IPA, IPAC, MTBE, Water, n-Heptane, Acetone, EA, ACN, DCM, MIBK, MEK): Form D
XRPD Day 3/Wet ([3]; slurry at RT, EtOH 1 mL): Form D
XRPD Day 3/Wet ([3]; slurry at RT, MeOH 1 mL): Amorphous
XRPD Day 3/Wet ([3]; slurry at RT, THF 1 mL): Amorphous
XRPD Day 11/Wet ([3]; slurry at RT, printed at MeOH): Form D

Cc1n[nH]c2nc(-c3ccc(NS(=O)(=O)c4cc(F)ccc4F)c(F)c3)nc(NCCN(C)C)c12.Cl [Compound 3 Form E]
XRPD Resulting Form ([4]; Heated to 114° C. at 10° C./min, and cooled to 25° C. at 5° C./min): Form E
XRPD Resulting Form ([4]; Heated to 160° C. at 10° C./min, and cooled to 25° C. at 5° C./min): Form D

Cc1n[nH]c2nc(-c3ccc(NS(=O)(=O)c4cc(F)ccc4F)c(F)c3)nc(NCCN(C)C)c12 [Compound 4 Form C + trace Form B]
XRPD Resulting Form ([4]; Heated to 175° C. at 10° C./min, and cooled to 25° C. at 5° C./min): Form B (LC)

Cc1n[nH]c2nc(-c3ccc(NS(=O)(=O)c4cc(F)ccc4F)c(F)c3)nc(NCCN(C)C)c12 [Compound 4 Forms B + D]
Results 8 d (XRPD) ([5]; ACN, 50° C.): Form B
Results 14 d (XRPD) ([5]; ACN, 50° C.): Form B
Results 8 d (XRPD) ([5]; ACN, RT): Form B + Form D
Results 14 d (XRPD) ([5]; ACN, RT): Form D
Results 8 d (XRPD) ([5]; IPAC, 50° C.): Form D
Results 14 d (XRPD) ([5]; IPAC, 50° C.): Form D
Results 8 d (XRPD) ([5]; IPAC, RT): Form D
Results 14 d (XRPD) ([5]; IPAC, RT): Form D
Results 8 d (XRPD) ([5]; MeOH, 50° C.): Form B
Results 14 d (XRPD) ([5]; MeOH, 50° C.): Form B
Results 8 d (XRPD) ([5]; MeOH, RT): Form B
Results 14 d (XRPD) ([5]; MeOH, RT): Form B
XPRD results, Form ([1]; ACN/water, aW 0.37, 8 d): Form D
XPRD results, Form ([1]; ACN/water, aW 0.37, 14 d): Form D
XPRD results, Form ([1]; ACN/water, aW 0.58, 8 d): Form D
XPRD results, Form ([1]; ACN/water, aW 0.58, 14 d): Form D
XPRD results, Form ([1]; ACN/water, aW 0.78, 8 d): Form D
XPRD results, Form ([1]; ACN/water, aW 0.78, 14 d): Form D
XPRD results, Form ([1]; ACN/water, aW 0.90, 8 d): Form D
XPRD results, Form ([1]; ACN/water, aW 0.90, 14 d): Form D
XPRD results, Form ([1]; MeOH/water, aW 0.08, 3 d): Forms B + D
XPRD results, Form ([1]; MeOH/water, aW 0.08, 7 d): Form B
XPRD results, Form ([1]; MeOH/water, aW 0.16, 3 d): Form D
XPRD results, Form ([1]; MeOH/water, aW 0.16, 7 d): Form D
